Assay results from ChEMBL document CHEMBL4002629, “Design, synthesis and biological evaluation of novel 3-substituted 4-anilino-coumarin derivatives as antitumor agents” (Bioorg Med Chem Lett, 2017).
The source made the active and inactive calls. The rule behind the calls is not given here.

What was measured:
MCF7 [1] = experiment: Antiproliferative activity against human MCF7 cells after 48 hrs by MTT assay; type: functional, cell-based; settings: MCF7, 48 h
HepG2 = experiment: Antiproliferative activity against human HepG2 cells after 48 hrs by MTT assay; type: functional, cell-based; settings: HepG2, 48 h
HCT-116 = experiment: Antiproliferative activity against human HCT116 cells after 48 hrs by MTT assay; type: functional, cell-based; settings: HCT-116, 48 h
PANC-1 = experiment: Antiproliferative activity against human PANC1 cells after 48 hrs by MTT assay; type: functional, cell-based; settings: PANC-1, 48 h
MCF7 [2] = experiment: Cell cycle arrest in human MCF7 cells assessed as accumulation at G0/G1 phase at 5 uM after 48 hrs by propidium iodide staining-based flow cytometric method (reference value: 55.56 +/- 0.91%); type: functional
MCF7 [3] = experiment: Cell cycle arrest in human MCF7 cells assessed as accumulation at G2/M phase at 5 uM after 48 hrs by propidium iodide staining-based flow cytometric method (reference value: 24.16 +/- 2.29%); type: functional
MCF7 [4] = experiment: Cell cycle arrest in human MCF7 cells assessed as accumulation at G0/G1 phase at 10 uM after 48 hrs by propidium iodide staining-based flow cytometric method (reference value: 55.56 +/- 0.91%); type: functional
MCF7 [5] = experiment: Cell cycle arrest in human MCF7 cells assessed as accumulation at G2/M phase at 10 uM after 48 hrs by propidium iodide staining-based flow cytometric method (reference value: 24.16 +/- 2.29%); type: functional
MCF7 [6] = experiment: Cell cycle arrest in human MCF7 cells assessed as accumulation at G0/G1 phase at 15 uM after 48 hrs by propidium iodide staining-based flow cytometric method (reference value: 55.56 +/- 0.91%); type: functional
MCF7 [7] = experiment: Cell cycle arrest in human MCF7 cells assessed as accumulation at G2/M phase at 15 uM after 48 hrs by propidium iodide staining-based flow cytometric method (reference value: 24.16 +/- 2.29%); type: functional
MCF7 [8] = experiment: Induction of apoptosis in human MCF7 cells assessed as cell distortion at 5 to 15 uM after 24 hrs by Hoechst 33258 staining-based inverted microscopy; type: functional
MCF7 [9] = experiment: Induction of apoptosis in human MCF7 cells assessed as membrane blebbing at 5 to 15 uM after 24 hrs by Hoechst 33258 staining-based inverted microscopy; type: functional, cell-based
MCF7 [10] = experiment: Induction of apoptosis in human MCF7 cells assessed as membrane shrinkage at 5 to 15 uM after 24 hrs by Hoechst 33258 staining-based inverted microscopy; type: functional, cell-based
MCF7 [11] = experiment: Induction of apoptosis in human MCF7 cells assessed as cell rounding up at 5 to 15 uM after 24 hrs by Hoechst 33258 staining-based inverted microscopy; type: functional
MCF7 [12] = experiment: Induction of apoptosis in human MCF7 cells assessed as early apoptotic cells at 5 uM after 48 hrs by annexin V-propidium iodide staining-based flow cytometry (reference value: 3.2%); type: functional
MCF7 [13] = experiment: Induction of apoptosis in human MCF7 cells assessed as late apoptotic cells at 5 uM after 48 hrs by annexin V-propidium iodide staining-based flow cytometry (reference value: 0.1%); type: functional
MCF7 [14] = experiment: Induction of apoptosis in human MCF7 cells assessed as necrotic cells at 5 uM after 48 hrs by annexin V-propidium iodide staining-based flow cytometry (reference value: 0.3%); type: functional
MCF7 [15] = experiment: Induction of apoptosis in human MCF7 cells assessed as viable cells at 5 uM after 48 hrs by annexin V-propidium iodide staining-based flow cytometry (reference value: 96.3%); type: functional; settings: MCF7, 48 h, read-out: Activity
MCF7 [16] = experiment: Induction of apoptosis in human MCF7 cells assessed as early apoptotic cells at 10 uM after 48 hrs by annexin V-propidium iodide staining-based flow cytometry (reference value: 3.2%); type: functional
MCF7 [17] = experiment: Induction of apoptosis in human MCF7 cells assessed as late apoptotic cells at 10 uM after 48 hrs by annexin V-propidium iodide staining-based flow cytometry (reference value: 0.1%); type: functional
MCF7 [18] = experiment: Induction of apoptosis in human MCF7 cells assessed as necrotic cells at 10 uM after 48 hrs by annexin V-propidium iodide staining-based flow cytometry (reference value: 0.3%); type: functional
MCF7 [19] = experiment: Induction of apoptosis in human MCF7 cells assessed as viable cells at 10 uM after 48 hrs by annexin V-propidium iodide staining-based flow cytometry (reference value: 96.3%); type: functional; settings: MCF7, 48 h, read-out: Activity
MCF7 [20] = experiment: Induction of apoptosis in human MCF7 cells assessed as early apoptotic cells at 15 uM after 48 hrs by annexin V-propidium iodide staining-based flow cytometry (reference value: 3.2%); type: functional
MCF7 [21] = experiment: Induction of apoptosis in human MCF7 cells assessed as late apoptotic cells at 15 uM after 48 hrs by annexin V-propidium iodide staining-based flow cytometry (reference value: 0.1%); type: functional
MCF7 [22] = experiment: Induction of apoptosis in human MCF7 cells assessed as necrotic cells at 15 uM after 48 hrs by annexin V-propidium iodide staining-based flow cytometry (reference value: 0.3%); type: functional
MCF7 [23] = experiment: Induction of apoptosis in human MCF7 cells assessed as viable cells at 15 uM after 48 hrs by annexin V-propidium iodide staining-based flow cytometry (reference value: 96.3%); type: functional; settings: MCF7, 48 h, read-out: Activity
HUVEC = experiment: Antiproliferative activity against HUVEC after 48 hrs by MTT assay; type: cell-based; settings: Homo sapiens
[24] = Selectivity index, ratio of IC50 for HUVEC to IC50 for human MCF7 cells
[25] = Selectivity index, ratio of IC50 for HUVEC to IC50 for human HepG2 cells
[26] = Selectivity index, ratio of IC50 for HUVEC to IC50 for human HCT116 cells
[27] = Selectivity index, ratio of IC50 for HUVEC to IC50 for human PANC1 cells
MCF7 [28] = experiment: Induction of apoptosis in human MCF7 cells after 48 hrs by annexin V-propidium iodide staining-based flow cytometry; type: functional, cell-based

COc1ccc2oc(=O)c(C(=O)C(F)(F)F)c(Nc3ccc4c(c3)OCO4)c2c1
IC50 (MCF7 [1]): 16.6 µM
IC50 (HepG2): 5.45 µM
IC50 (HCT-116): 4.42 µM
IC50 (PANC-1): 5.16 µM
Activity (MCF7 [2]): 45.12%
Activity (MCF7 [3]): 26.13%
Activity (MCF7 [4]): 30.15%
Activity (MCF7 [5]): 41.93%
Activity (MCF7 [6]): 21.93%
Activity (MCF7 [7]): 63.06%
Activity (MCF7 [8]): Active
Activity (MCF7 [9]): Active
Activity (MCF7 [10]): Active
Activity (MCF7 [11]): Active
Activity (MCF7 [12]): 16.3%
Activity (MCF7 [13]): 1.3%
Activity (MCF7 [14]): 1.1%
viability at 5 µM (MCF7 [15]): 81.3%
Activity (MCF7 [16]): 20.2%
Activity (MCF7 [17]): 1.9%
Activity (MCF7 [18]): 1.6%
viability at 10 µM (MCF7 [19]): 76.3%
Activity (MCF7 [20]): 32.1%
Activity (MCF7 [21]): 4.7%
Activity (MCF7 [22]): 3.3%
viability at 15 µM (MCF7 [23]): 59.9%
IC50 (HUVEC): 26.3 µM
Ratio IC50 [24]: 1.59
Ratio IC50 [25]: 4.82
Ratio IC50 [26]: 5.94
Ratio IC50 [27]: 5.09
Activity (MCF7 [28]): Dose-dependent effect
